Active and inactive are the calls of the source. No cut-off for these calls is given here.
What was measured:
[1] = biological target: T1, Norepinephrine transporter (Rattus norvegicus, UniProt Q9WTR4); assay: Inhibition of [3H]nisoxetine binding at norepinephrine transporter
[2] = biological target: T1, Norepinephrine transporter; assay: Affinity for norepinephrine transporter determined by [3H]nisoxetine displacement.
[3] = biological target: Sodium-dependent dopamine transporter (Rattus norvegicus, UniProt P23977); assay: Inhibition of [3H]WIN-35428 binding at dopamine transporter was determined
Chain of Sodium-dependent dopamine transporter (P23977 whole entry): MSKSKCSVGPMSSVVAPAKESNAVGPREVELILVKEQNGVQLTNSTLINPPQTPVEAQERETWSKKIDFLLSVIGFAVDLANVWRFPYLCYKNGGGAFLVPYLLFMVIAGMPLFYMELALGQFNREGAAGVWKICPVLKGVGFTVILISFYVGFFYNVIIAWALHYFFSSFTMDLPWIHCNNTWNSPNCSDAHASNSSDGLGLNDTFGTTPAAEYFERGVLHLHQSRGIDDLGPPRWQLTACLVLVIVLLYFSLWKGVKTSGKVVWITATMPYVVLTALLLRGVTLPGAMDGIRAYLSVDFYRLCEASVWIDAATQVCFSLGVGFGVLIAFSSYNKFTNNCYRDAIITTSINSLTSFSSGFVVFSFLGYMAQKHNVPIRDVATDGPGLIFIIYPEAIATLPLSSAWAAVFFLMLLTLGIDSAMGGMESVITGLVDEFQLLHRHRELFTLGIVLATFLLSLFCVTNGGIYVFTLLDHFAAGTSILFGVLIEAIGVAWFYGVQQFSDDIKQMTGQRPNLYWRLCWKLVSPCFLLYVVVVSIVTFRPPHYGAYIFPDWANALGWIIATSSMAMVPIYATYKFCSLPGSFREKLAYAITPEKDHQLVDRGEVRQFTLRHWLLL

[4] = biological target: Sodium-dependent serotonin transporter (Rattus norvegicus, UniProt P31652); assay: Inhibition of [3H]paroxetine binding at serotonin transporter was determined
Chain of Sodium-dependent serotonin transporter (P31652 whole entry): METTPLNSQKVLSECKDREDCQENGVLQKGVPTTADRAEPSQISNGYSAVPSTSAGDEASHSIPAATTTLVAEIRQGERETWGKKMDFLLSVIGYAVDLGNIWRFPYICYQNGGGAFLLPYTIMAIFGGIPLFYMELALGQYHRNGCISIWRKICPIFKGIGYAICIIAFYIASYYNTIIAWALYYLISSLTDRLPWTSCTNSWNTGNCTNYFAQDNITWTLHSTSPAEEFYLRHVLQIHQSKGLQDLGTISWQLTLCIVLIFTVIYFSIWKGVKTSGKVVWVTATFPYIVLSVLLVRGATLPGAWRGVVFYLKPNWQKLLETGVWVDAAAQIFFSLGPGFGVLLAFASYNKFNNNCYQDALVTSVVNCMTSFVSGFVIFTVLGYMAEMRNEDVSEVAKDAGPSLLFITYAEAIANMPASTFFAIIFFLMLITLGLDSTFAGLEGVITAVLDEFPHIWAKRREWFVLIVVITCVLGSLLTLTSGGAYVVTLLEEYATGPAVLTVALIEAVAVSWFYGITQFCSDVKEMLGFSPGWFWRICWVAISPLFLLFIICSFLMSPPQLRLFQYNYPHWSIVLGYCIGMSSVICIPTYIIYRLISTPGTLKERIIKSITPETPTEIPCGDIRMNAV

[5] = biological target: Kappa-type opioid receptor (Cavia porcellus) (UniProt P41144); assay: Inhibition of [35S]GTP-gamma-S, binding in guines pig caudate stimulated by U69, 593 of Opioid receptor kappa 1; type: functional
Chain of Kappa-type opioid receptor (Cavia porcellus) (P41144 whole entry): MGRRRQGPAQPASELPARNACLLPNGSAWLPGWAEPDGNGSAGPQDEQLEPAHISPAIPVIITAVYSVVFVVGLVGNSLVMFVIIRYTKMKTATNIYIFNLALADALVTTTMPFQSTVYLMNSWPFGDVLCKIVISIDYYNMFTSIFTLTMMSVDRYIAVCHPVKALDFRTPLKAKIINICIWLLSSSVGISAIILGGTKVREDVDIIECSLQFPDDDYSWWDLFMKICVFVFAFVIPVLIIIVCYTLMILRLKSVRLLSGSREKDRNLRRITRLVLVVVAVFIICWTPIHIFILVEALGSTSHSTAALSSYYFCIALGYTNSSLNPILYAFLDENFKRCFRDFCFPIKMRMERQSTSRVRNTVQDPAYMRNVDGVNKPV

[6] = biological target: Mu-type opioid receptor (Cavia porcellus) (UniProt P97266); assay: Inhibition of [35S]GTP-gamma-S, binding in guines pig caudate stimulated by DAMGO for Opioid receptor mu 1; type: functional
Chain of Mu-type opioid receptor (Cavia porcellus) (P97266 whole entry): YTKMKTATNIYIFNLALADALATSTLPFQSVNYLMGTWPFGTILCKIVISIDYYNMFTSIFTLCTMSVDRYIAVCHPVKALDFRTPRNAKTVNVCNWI

Mu-type opioid receptor = Mu-type opioid receptor (Cavia porcellus, UniProt P97266); assay: Inhibition of binding of [3H]DAMGO to Opioid receptor mu 1 in guinea pig membranes; type: cell membranes
Chain of Mu-type opioid receptor (P97266 whole entry): as above

[7] = biological target: Delta-type opioid receptor (Homo sapiens) (UniProt P41143); settings: Cavia porcellus
Chain of Delta-type opioid receptor (Homo sapiens) (P41143 whole entry): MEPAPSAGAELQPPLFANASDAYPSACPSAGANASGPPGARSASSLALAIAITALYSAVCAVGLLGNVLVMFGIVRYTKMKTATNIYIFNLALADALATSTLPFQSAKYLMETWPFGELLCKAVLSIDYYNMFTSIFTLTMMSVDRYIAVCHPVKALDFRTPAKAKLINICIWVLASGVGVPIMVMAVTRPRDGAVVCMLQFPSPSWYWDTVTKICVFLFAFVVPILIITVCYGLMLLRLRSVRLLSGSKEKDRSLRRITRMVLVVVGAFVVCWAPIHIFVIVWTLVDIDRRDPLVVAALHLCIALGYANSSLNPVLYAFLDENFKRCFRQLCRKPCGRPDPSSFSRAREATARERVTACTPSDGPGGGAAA
Description: Inhibition of [35S]GTP-gamma-S, binding in guines pig caudate stimulated by SNC-80 to Opioid receptor delta 1

Rattus norvegicus [8] = species on record: Rattus norvegicus; type: functional, Cardiac ventricle
Rattus norvegicus [9] = assay: Half life of recovery for dopamine transporter in striatum after intraventricular injection of 100 nmol of compound; type: functional, organism-based
Rattus norvegicus [10] = assay: Degradation rate constant for dopamine transporter in striatum after intraventricular injection of 100 nmol of compound; type: functional
Rattus norvegicus [11] = species on record: Rattus norvegicus; type: functional, Striatum
Rattus norvegicus [12] = assay: Half life of recovery for dopamine transporter in nucleus accumbens after intraventricular injection of 100 nmol of compound; type: functional, organism-based
Rattus norvegicus [13] = assay: Degradation rate constant for dopamine transporter in nucleus accumbens after intraventricular injection of 100 nmol of compound; type: functional
Mus musculus [14] = species on record: Mus musculus; assay: Antagonistic activity of nicotine-induced analgesia in mice was determined; type: functional
Mus musculus [15] = species on record: Mus musculus; assay: Antagonistic activity of nicotine-induced hypothermia in mice was determined; type: functional
[16] = biological target: Mu-type opioid receptor (Cavia porcellus) (UniProt P97266)
Description: Inhibition of [35S]GTP-gamma-S, binding in cloned Opioid receptor mu 1 stimulated by DAMGO

[17] = biological target: Delta-type opioid receptor (Homo sapiens) (UniProt P41143); settings: Cavia porcellus; remark: listed apart in the source
Description: Inhibition of [35S]GTP-gamma-S, binding in cloned Opioid receptor delta 1 stimulated by SNC-80

[18] = biological target: Kappa-type opioid receptor (Cavia porcellus) (UniProt P41144)
Description: Inhibition of [35S]GTP-gamma-S, binding in cloned Opioid receptor kappa 1 stimulated by U50,488

[19] = biological target: D(1A) dopamine receptor (Rattus norvegicus) (UniProt P18901); settings: Striatum
Chain of D(1A) dopamine receptor (Rattus norvegicus) (P18901 whole entry): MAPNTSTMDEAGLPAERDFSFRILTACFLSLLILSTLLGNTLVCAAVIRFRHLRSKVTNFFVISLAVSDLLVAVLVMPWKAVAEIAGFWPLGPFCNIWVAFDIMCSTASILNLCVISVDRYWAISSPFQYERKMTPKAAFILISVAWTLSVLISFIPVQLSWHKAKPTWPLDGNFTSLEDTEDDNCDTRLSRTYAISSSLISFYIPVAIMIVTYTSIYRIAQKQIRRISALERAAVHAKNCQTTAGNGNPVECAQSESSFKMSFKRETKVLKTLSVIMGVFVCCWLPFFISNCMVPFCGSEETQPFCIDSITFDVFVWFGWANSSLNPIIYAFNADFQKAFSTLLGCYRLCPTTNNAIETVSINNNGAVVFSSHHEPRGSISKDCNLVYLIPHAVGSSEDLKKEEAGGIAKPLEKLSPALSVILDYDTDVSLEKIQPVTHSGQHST

[20] = biological target: D(1A) dopamine receptor (Rattus norvegicus) (UniProt P18901); settings: Striatum; remark: listed apart in the source

T1 sequence (Q9WTR4 whole entry): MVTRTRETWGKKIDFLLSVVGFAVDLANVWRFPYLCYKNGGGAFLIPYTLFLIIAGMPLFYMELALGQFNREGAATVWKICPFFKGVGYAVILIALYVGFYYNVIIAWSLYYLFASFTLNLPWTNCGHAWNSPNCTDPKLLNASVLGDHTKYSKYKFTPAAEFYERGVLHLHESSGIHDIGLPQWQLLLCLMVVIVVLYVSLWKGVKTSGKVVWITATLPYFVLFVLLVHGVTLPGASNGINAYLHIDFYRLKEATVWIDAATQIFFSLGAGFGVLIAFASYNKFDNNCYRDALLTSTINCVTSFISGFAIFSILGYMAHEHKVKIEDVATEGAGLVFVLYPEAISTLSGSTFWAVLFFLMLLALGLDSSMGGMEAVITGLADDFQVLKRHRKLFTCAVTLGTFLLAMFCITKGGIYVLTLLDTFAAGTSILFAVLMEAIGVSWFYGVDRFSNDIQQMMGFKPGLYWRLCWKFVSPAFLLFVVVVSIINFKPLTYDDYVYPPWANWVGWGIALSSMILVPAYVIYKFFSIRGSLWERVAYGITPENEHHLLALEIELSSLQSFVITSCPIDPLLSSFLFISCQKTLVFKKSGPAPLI

SMILES: Cc1ccc([C@H]2C[C@H]3CCC(C2c2ccccc2)N3C)cc1 (some centres not stated)
- IC50 [1]: 480 nM
- Ki [2]: 289 nM
- IC50 [3]: 1.96 nM
- IC50 [4]: 11000 nM
- Ki [4]: 1000 nM

SMILES: CC1C2CCCC1(c1cccc(O)c1)CCN2C (configuration not stated)
- Ke [5]: 105 nM
- Ke [6]: 21.2 nM

SMILES: CCc1ccc([C@H]2C[C@H]3CCC(N3)C2C(=O)OC)cc1 (some centres not stated)
- IC50 [1]: 122 nM
- Ki [2]: 74 nM
- IC50 [3]: 50 nM
- IC50 [4]: 8.1 nM
- Ki [4]: 0.74 nM

SMILES: CC(C)[C@@H](CN1CC[C@@](C)(c2cccc(O)c2)[C@@H](C)C1)NC(=O)CCc1ccc(O)cc1
- Ke [5]: 4.7 nM
- Ke [6]: 7.25 nM

SMILES: CC1CN(C)C2CCCC1(c1cccc(O)c1)C2 (configuration not stated)
- Ke [5]: 76.4 nM
- Ke [6]: 25.2 nM

SMILES: C[C@H]1CN(CC[C@H](O)C2CCCCC2)CC[C@@]1(C)c1cccc(O)c1
- Ke [5]: 0.33 nM
- Ki (Mu-type opioid receptor): 0.32 nM
- Ke [6]: 0.021 nM
- Ke [7]: 0.312 nM

SMILES: COC(=O)C1C2CC[C@H](C[C@@H]1c1ccc(I)cc1)N2C (some centres not stated)
- Ki [2]: 21.6 nM
- Ki [4]: 0.38 nM

SMILES: COC(=O)C1C2CC[C@H](C[C@H]1c1ccc(Cl)c(Cl)c1)N2C (some centres not stated)
- IC50 [1]: 18 nM
- Ki [2]: 10.8 nM
- IC50 [4]: 3.13 nM
- Ki [4]: 0.28 nM

SMILES: CN1[C@H]2CC[C@@H]1[C@@H](C(=O)N1CCCC1)[C@@H](c1ccc(I)cc1)C2
- Ki [2]: 596 nM
- Ki [4]: 157 nM

SMILES: CN1C2CC[C@@H]1C[C@H](c1ccc(Cl)cc1)C2C(=O)OCCc1ccc(N=S)cc1 (some centres not stated)
- Transporter production rate (r) (Rattus norvegicus [8]): 106 fM/mg/day
- T1/2 (Rattus norvegicus [9]): 50.4 h
- Transporter deg rate const (k) (Rattus norvegicus [10]): 0.34 day⁻¹
- Transporter production rate (r) (Rattus norvegicus [11]): 202 fM/mg/day
- T1/2 (Rattus norvegicus [12]): 50.4 h
- IC50 [1]: 1400 nM
- Ki [2]: 843 nM
- IC50 [3]: 5.3 nM
- Transporter deg rate const (k) (Rattus norvegicus [13]): 0.3 day⁻¹
- IC50 [4]: 7.1 nM
- Ki [4]: 0.65 nM

SMILES: COC(=O)C1C2CC[C@H](C[C@@H]1c1ccc(C)c(F)c1)N2 (some centres not stated)
- IC50 [1]: 0.86 nM
- Ki [2]: 0.43 nM
- IC50 [3]: 9 nM
- IC50 [4]: 97.4 nM
- Ki [4]: 23.8 nM

SMILES: CC(NC(C)(C)C)C(=O)c1cccc(Cl)c1 (configuration not stated) [BUPROPION]
- AD50 (Mus musculus [14]): 9 mM/kg
- AD50 (Mus musculus [15]): 16 mM/kg

SMILES: CC(C)[C@@H](CN1CC[C@@](C)(c2cccc(O)c2)[C@@H](C)C1)NC(=O)[C@H]1Cc2ccc(O)cc2CN1
- Ke [16]: 3.42 nM
- Ke [17]: > 100 nM
- Ke [18]: 6 pM

SMILES: COC(=O)C1C2CC[C@H](C[C@@H]1c1ccc(Cl)cc1)N2C (some centres not stated)
- Ki [4]: 4.1 nM

SMILES: C[C@H]1CN(C/C=C/c2ccccc2Cl)CC[C@@]1(C)c1cccc(O)c1
- Ke [5]: 0.567 nM
- Ki (Mu-type opioid receptor): 1.12 nM
- Ke [6]: 0.026 nM

SMILES: Oc1cc2c(cc1O)C(c1ccccc1)CNCC2 (configuration not stated)
- NC [19]: inactive
- NC [20]: inactive

SMILES: CCc1ccc([C@H]2C[C@H]3CCC(N3)C2C(=O)OC)cc1I (some centres not stated)
- IC50 [1]: 148 nM
- Ki [2]: 89 nM
- IC50 [3]: 329 nM
- IC50 [4]: 0.69 nM
- Ki [4]: 0.063 nM

SMILES: CN1C2CC[C@@H]1C[C@H](c1ccc(Cl)cc1)C2c1cc(-c2ccccc2)no1 (some centres not stated)
- Ki [2]: 304 nM
- Ki [4]: 220 nM

Source: ChEMBL document CHEMBL1136786, “2002 Medicinal Chemistry Division Award address: monoamine transporters and opioid receptors. Targets for addiction therapy” (J Med Chem, 2003)
